From ChEMBL document CHEMBL1201862, “PubChem BioAssay data set” (2004)
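A five-concentration, 48-hour dose response in 96-well plates underlies each endpoint, interpolated linearly between surrounding concentrations. GI50 is the concentration that inhibits growth by half.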 Calls of active or inactive are those of the source. No stated cut-off is given here; in the data, active = GI50 up to about 1.1 µM and inactive = higher.

Tests used:
Assay in all cases: inhibition of tumour cell growth, NCI panel, 48 h
CAKI-1 = test system: CAKI-1
A549 = test system: A549
CCRF-CEM = test system: CCRF-CEM
TK-10 = test system: TK-10
SK-OV-3 = test system: SK-OV-3
NCI-H226 = test system: NCI-H226
OVCAR-3 = test system: OVCAR-3
MDA-N = test system: MDA-N
SR = test system: SR
SNB-19 = test system: SNB-19
RPMI-8226 = test system: RPMI-8226
UO-31 = test system: UO-31
PC-3 = test system: PC-3
HL-60 = test system: HL-60
NCI-H460 = test system: NCI-H460
T47D = test system: T47D
MDA-MB-435 = test system: MDA-MB-435
MCF7 = test system: MCF7
NCI/ADR-RES = test system: NCI/ADR-RES
SK-MEL-28 = test system: SK-MEL-28

Measured: GI50

CN1CN(c2ccccc2)C2(CCN(CCCSc3ccccc3NC(=O)/C=C/c3ccccc3)CC2)C1=O
inactive: CAKI-1 9.91 µM | A549 6.93 µM | CCRF-CEM 2.93 µM | TK-10 8.39 µM | SK-OV-3 5.92 µM | NCI-H226 2.24 µM | OVCAR-3 3.18 µM | MDA-N 2.57 µM | SR 2.1 µM | SNB-19 5.27 µM | RPMI-8226 1.89 µM | UO-31 2.99 µM | PC-3 5.45 µM | HL-60 3.95 µM | NCI-H460 4.05 µM | T47D 4.01 µM | MDA-MB-435 2.61 µM | MCF7 13 µM | NCI/ADR-RES 3.87 µM | SK-MEL-28 2.11 µM
